Blank lines part the entries; values can stand above or below the compound they belong to.
Experiments:
Assay type in all cases: cell-based
[1] = test system: breast cancer (MDA-MB-468 and MCF-7 cell lines) and melanoma cell lines (MalMe3, SkMe128); assay: Cell cycle analysis by flow cytometry (propidium iodide); apoptosis as cells in sub G0/G1 (pre G0) peak; settings: following treatment with IC70 concentration of compound
Experimental: Assessment of cell cycle analysis was performed using propidium iodide staining of cells and subsequent analysis on a Beckton Dickinson flow cytometer. […] The following day the medium was removed and replaced with 5 ml medium per flask containing the appropriate drug concentrations to be tested. 40 mg/ml stock drug solutions in DMSO were stores at −20° C. and on the day off drug treatment working solutions of 4 mg/ml were prepared in medium from which the final drug dilutions were prepared. Cells were maintained in an incubator (37° C., 5% CO2) for up to 96 h post treatment. After 24, 48, 72 or 96 h time points the medium from each flask was collected, stored on ice, and the remaining cells in the flasks were trypsinised by aiding 1 ml trypsin-EDTA solution to each flask. Cells were replaced into the incubator for 10 min to allow them to detach from the plastic plate. The cells in each flask were collected by adding the appropriate medium removed from each flask back to the corresponding flask and then placing medium containing both the attached and floating cells into a 15 ml tube. Cells were centrifuged at 4° C. for 5 min at 1500 rpm and the supernatant removed from each tube. The remaining cells were washed twice in ice cold PBS and then fixed in ice cold methanol overnight at −20° C. On the day of analysis of cells each tube was centrifuged at 4° C. for 5 min at 1500 rpm and the methanol removed and the cells washed twice in ice cold PBS. 20 μl propidium iodide solution (1 mg/ml) and 20 μl RNase A (10 mg/ml solution) were added to 1 ml PBS per tube and the cells were incubated for 30 min at 37° C. Cells were analysed on the flow cytometer and cell cycle changes were assessed.

[2] = test system: HCT−/−; assay: MTT assay (anti-proliferative activity)
Source text: (§1) The MTT assay was used initially to determine the anti-proliferative activity of the test compounds. In the MTT assay a yellow thiazolyl blue tetrazolium bromide salt (MTT) is reduced, in metabolically active cells, to form insoluble purple formazan crystals which are solubilised by the addition of dimethyl sulphoxide (DMSO). Absorbance readings can then be determined spectrophotometrically and a relationship established between control untreated cells and drug treated cells enabling the quantification of anti-proliferative changes as a result of drug treatment (Mosmann, 1983).
(§2) Wells containing medium only were used as blanks. Following the attachment period, cells were treated with appropriate drug concentrations (20 μl added per well). 40 mg/ml stock drug solutions, in DMSO, were stored at −20° C. and on the day of drug treatment working solutions of 4 mg/ml were prepared in medium which was further diluted to achieve final drug dilution volumes of 20 μl. Initial screening was determined over a concentration range of 1-200 μg/ml. For potent compounds the assay was repeated over a narrower concentration range to determine accurate IC50 values. Cells were exposed to drug for 96 h continual exposure (37° C., 5% CO2). Following the 96 h incubation, 50 μl MTT solution (1 g MTT/500 ml PBS) was added per well and the plates were further incubated for 4 h (37° C., 5% CO2). After incubation the MTT and medium was removed from the wells and 100 μl DMSO added per well. Plates were agitated on an orbital mixer platform (Stuart Scientific) for 10 minutes. Absorbance was measured at 570 nm on a Biotrak II (Amersham Bioscience) plate reader. IC50 values were calculated comparing control and drug treated cells.

[3] = test system: HT29; assay: MTT assay (anti-proliferative activity)
Source text: as §1, §2

[4] = test system: ZR-75-1; assay: MTT assay (anti-proliferative activity)
Source text: as §1, §2

[5] = test system: H23; assay: MTT assay (anti-proliferative activity)
Source text: as §1, §2

[6] = test system: LNCAP; assay: MTT assay (anti-proliferative activity)
Source text: as §1, §2

[7] = test system: PC3; assay: MTT assay (anti-proliferative activity)
Source text: as §1, §2

[8] = test system: RKO; assay: MTT assay (anti-proliferative activity)
Source text: as §1, §2

[9] = test system: HCT+/+; assay: MTT assay (anti-proliferative activity)
Source text: as §1, §2

[10] = test system: PNT2; assay: MTT assay (anti-proliferative activity)
Source text: as §1, §2

SMILES: CC(C)CC(NC(=O)c1ccc2c(c1O)C(=O)OC(C)C2)C(=O)OC(C)(C)C (mixture of isomers) [ALM-55, Leucine Tert-Butyl Ester Amide]
% Cells in Pre G0 phase of Cell Cycle [1]: 3.4%

IC50 [2]: 42.7 µM
IC50 [3]: 18.7 µM
IC50 [6]: 10.7 µM
IC50 [7]: 9.6 µM
IC50 [9]: 21.3 µM
SMILES: CCCCC/C=C\C/C=C\C/C=C\CCCCCOC(=O)c1ccc2c(c1O)C(=O)OC(C)C2 (racemic) [ALM-43, γ-Linolenyl Ester]
IC50 [4]: 6.4 µM
IC50 [5]: 2.1 µM
IC50 [8]: 10.7 µM
IC50 [10]: 5.3 µM
% Cells in Pre G0 phase of Cell Cycle [1]: 11.8%

SMILES: CCCCCCNC(=O)c1ccc2c(c1O)C(=O)OC(C)C2 (racemic) [ALM-49, Hexyl Amide]
% Cells in Pre G0 phase of Cell Cycle [1]: 14.1%

SMILES: CC1(C)Cc2ccc(C(=O)N[C@@H](Cc3ccccc3)C(=O)O)c(O)c2C(=O)O1 [ALM-74, L-Phenyl Alanine Amide of Compound ALM-73]
% Cells in Pre G0 phase of Cell Cycle [1]: 34.4%
